# Numbered stars: 1 amine (or outer) side, 2 acyl side, 3 side chain; on linkers, the order of the positions; unused ones are H or OH. Square brackets hold non-standard residues; d marks the D form. Peptide text beside a SMILES is read from it. * marks the point of attachment. Pro(cis-4-CF3) = O=C(O)[C@@H]1C[C@H](C(F)(F)F)CN1; Phe(4-COOH) = N[C@@H](Cc1ccc(C(=O)O)cc1)C(=O)O; Pro(trans-4-F) = O=C(O)[C@@H]1C[C@@H](F)CN1; Phe(4-Cl) = N[C@@H](Cc1ccc(Cl)cc1)C(=O)O; Pro(cis-4-F) = O=C(O)[C@@H]1C[C@H](F)CN1; Pro(5S-Me) = C[C@H]1CC[C@@H](C(=O)O)N1; Dab(3S-OH) = NC[C@H](O)[C@H](N)C(=O)O; Lys(iPr) = CC(C)NCCCC[C@H](N)C(=O)O; X5 = O=C(C(N[*:1])c1cccs1)[*:2]; ΔZArg = N=C(N)NCC/C=C(\N)C(=O)O; Lys(Me) = CNCCCC[C@H](N)C(=O)O; dOrn = NCCC[C@@H](N)C(=O)O; NMeA = CN[C@@H](C)C(=O)O; Orn = NCCC[C@H](N)C(=O)O; NHiPr = CC(C)N*
# Legend:
# Assay in all cases: MIC, broth microdilution (CLSI), reference strain
# Details in all cases: CAMHB
# [1] = tested on: Pseudomonas aeruginosa ATCC 27853
# [2] = tested on: Escherichia coli ATCC 25922
# [3] = tested on: Staphylococcus aureus ATCC 13709
# [4] = tested on: Acinetobacter baumannii ATCC 19606
SMILES,Pa: MIC Pseudomonas aeruginosa ATCC 27853 [1],Ec: MIC Escherichia coli ATCC 25922 [2],Sa: MIC Staphylococcus aureus ATCC 13709 [3],Ab: MIC Acinetobacter baumannii ATCC 19606 [4]
C[C@H](NC(=O)[C@@H](NC(=O)[C@@H](N)CCCCN)[C@@H](O)CN)C(=O)NCC(=O)N[C@H](CCCN)C(=O)N1C[C@H](F)C[C@H]1C(=O)N[C@@H](Cc1cnc[nH]1)C(=O)N[C@@H](CCCCN)C(=O)N/C(=C\CCNC(=N)N)C(=O)O [24.142] (H-K[Dab(3S-OH)]AG[dOrn][Pro(trans-4-F)]HK[ΔZArg]-OH),− (>32 μg/mL),+ (≤32 μg/mL),+ (≤32 μg/mL),− (>32 μg/mL)
C[C@H](NC(=O)[C@@H](NC(=O)[C@@H](N)CCCCN)[C@@H](O)CN)C(=O)NCC(=O)N[C@H](CCCN)C(=O)N1C[C@@H](C(F)(F)F)C[C@H]1C(=O)N[C@@H](Cc1cnc[nH]1)C(=O)N[C@@H](CCCCN)C(=O)N/C(=C\CCNC(=N)N)C(=O)O [24.143] (H-K[Dab(3S-OH)]AG[dOrn][Pro(cis-4-CF3)]HK[ΔZArg]-OH),− (>32 μg/mL),+ (≤32 μg/mL),++ (≤8 μg/mL),− (>32 μg/mL)
C[C@H](NC(=O)[C@@H](NC(=O)[C@@H](N)CCCCN)[C@@H](O)CN)C(=O)NCC(=O)N[C@H](CCCN)C(=O)N1C[C@@H](F)C[C@H]1C(=O)N[C@@H](Cc1cnc[nH]1)C(=O)N[C@@H](CCCCN)C(=O)N/C(=C\CCNC(=N)N)C(=O)O [24.144] (H-K[Dab(3S-OH)]AG[dOrn][Pro(cis-4-F)]HK[ΔZArg]-OH),− (>32 μg/mL),+ (≤32 μg/mL),++ (≤8 μg/mL),− (>32 μg/mL)
C[C@H](NC(=O)[C@@H](NC(=O)[C@@H](N)CCCCN)[C@@H](O)CN)C(=O)NCC(=O)N[C@H](CCCN)C(=O)N1[C@@H](C)CC[C@H]1C(=O)N[C@@H](Cc1cnc[nH]1)C(=O)N[C@@H](CCCCN)C(=O)N/C(=C\CCNC(=N)N)C(=O)O [24.145] (H-K[Dab(3S-OH)]AG[dOrn][Pro(5S-Me)]HK[ΔZArg]-OH),− (>32 μg/mL),+ (≤32 μg/mL),++ (≤8 μg/mL),− (>32 μg/mL)
C[C@H](NC(=O)[C@@H](NC(=O)[C@@H](N)CCCCN)[C@@H](O)CN)C(=O)NCC(=O)N[C@H](CCCN)C(=O)N(C)[C@@H](C)C(=O)N[C@@H](Cc1cnc[nH]1)C(=O)N[C@@H](CCCCN)C(=O)N/C(=C\CCNC(=N)N)C(=O)O [24.146] (H-K[Dab(3S-OH)]AG[dOrn][NMeA]HK[ΔZArg]-OH),− (>32 μg/mL),− (>32 μg/mL),− (>32 μg/mL),− (>32 μg/mL)
CC(C)NCCCC[C@H](N)C(=O)N[C@H](C(=O)N[C@@H](C)C(=O)NCC(=O)N[C@H](CCCN)C(=O)N1CCC[C@H]1C(=O)N[C@@H](Cc1cnc[nH]1)C(=O)N[C@@H](CCCCN)C(=O)N/C(=C\CCNC(=N)N)C(=O)O)[C@@H](O)CN [24.147] (H-[Lys(iPr)][Dab(3S-OH)]AG[dOrn]PHK[ΔZArg]-OH),− (>32 μg/mL),− (>32 μg/mL),− (>32 μg/mL),− (>32 μg/mL)
CNCCCC[C@H](N)C(=O)N[C@H](C(=O)N[C@@H](C)C(=O)NCC(=O)N[C@H](CCCN)C(=O)N1CCC[C@H]1C(=O)N[C@@H](Cc1ccc(Cl)cc1)C(=O)N[C@@H](CCCCN)C(=O)N/C(=C\CCNC(=N)N)C(=O)O)[C@@H](O)CN [24.148] (H-[Lys(Me)][Dab(3S-OH)]AG[dOrn]P[Phe(4-Cl)]K[ΔZArg]-OH),− (>32 μg/mL),++ (≤8 μg/mL),++ (≤8 μg/mL),− (>32 μg/mL)
CNCCCC[C@H](N)C(=O)N[C@H](C(=O)N[C@@H](C)C(=O)NCC(=O)N[C@H](CCCN)C(=O)N1CCC[C@H]1C(=O)N[C@@H](Cc1cnc[nH]1)C(=O)N[C@@H](CCCCN)C(=O)N/C(=C\CCNC(=N)N)C(=O)O)[C@@H](O)CN [24.149] (H-[Lys(Me)][Dab(3S-OH)]AG[dOrn]PHK[ΔZArg]-OH),− (>32 μg/mL),+ (≤32 μg/mL),+ (≤32 μg/mL),− (>32 μg/mL)
C[C@H](NC(=O)[C@@H](NC(=O)[C@@H](N)CCCN)[C@@H](O)CN)C(=O)NCC(=O)N[C@H](CCCN)C(=O)N1CCC[C@H]1C(=O)N[C@@H](Cc1cnc[nH]1)C(=O)N[C@@H](CCCCN)C(=O)N/C(=C\CCNC(=N)N)C(N)=O [24.150] (H-[Orn][Dab(3S-OH)]AG[dOrn]PHK[ΔZArg]-NH2),− (>32 μg/mL),+ (≤32 μg/mL),++ (≤8 μg/mL),− (>32 μg/mL)
CNCCCC[C@H](NC(=O)[C@H](Cc1cnc[nH]1)NC(=O)[C@@H]1CCCN1C(=O)[C@@H](CCCN)NC(=O)CNC(=O)[C@H](C)NC(=O)[C@@H](NC(=O)[C@@H](N)CCCCN)[C@@H](O)CN)C(=O)N[C@H](CCCNC(=N)N)C(N)=O [24.155] (H-K[Dab(3S-OH)]AG[dOrn]PH[Lys(Me)][dR]-NH2),− (>32 μg/mL),− (>32 μg/mL),++ (≤8 μg/mL),− (>32 μg/mL)
C[C@H](NC(=O)[C@@H](NC(=O)[C@@H](N)CCCCN)[C@@H](O)CN)C(=O)NCC(=O)N[C@H](CCCN)C(=O)N1CCC[C@H]1C(=O)NC(C(=O)N[C@@H](CCCCN)C(=O)N/C(=C\CCNC(=N)N)C(=O)O)c1cccs1 (stereo partly drawn) [24.157] (H-K[Dab(3S-OH)]AG[dOrn]P[X5]K[ΔZArg]-OH),− (>32 μg/mL),− (>32 μg/mL),+ (≤32 μg/mL),− (>32 μg/mL)
C[C@H](NC(=O)[C@@H](NC(=O)[C@@H](N)CCCCN)[C@@H](O)CN)C(=O)NCC(=O)N[C@H](CCCN)C(=O)N1CCC[C@H]1C(=O)N[C@@H](C)C(=O)N[C@@H](CCCCN)C(=O)N/C(=C\CCNC(=N)N)C(=O)O [24.158] (H-K[Dab(3S-OH)]AG[dOrn]PAK[ΔZArg]-OH),− (>32 μg/mL),− (>32 μg/mL),+ (≤32 μg/mL),− (>32 μg/mL)
COC(=O)/C(=C/CCNC(=N)N)NC(=O)[C@H](CCCCN)NC(=O)[C@H](Cc1cnc[nH]1)NC(=O)[C@@H]1CCCN1C(=O)[C@@H](CCCN)NC(=O)CNC(=O)[C@H](C)NC(=O)[C@@H](NC(=O)[C@@H](N)CCCCN)[C@@H](O)CN [24.160] (H-K[Dab(3S-OH)]AG[dOrn]PHK[ΔZArg]-OMe),− (>32 μg/mL),++ (≤8 μg/mL),++ (≤8 μg/mL),− (>32 μg/mL)
C[C@H](NC(=O)[C@@H](NC(=O)[C@@H](N)CCCCN)[C@@H](O)CN)C(=O)NCC(=O)N[C@H](CCCN)C(=O)N1CCC[C@H]1C(=O)N[C@@H](Cc1ccc(C(=O)O)cc1)C(=O)N[C@@H](CCCCN)C(=O)N/C(=C\CCNC(=N)N)C(=O)O [24.161] (H-K[Dab(3S-OH)]AG[dOrn]P[Phe(4-COOH)]K[ΔZArg]-OH),− (>32 μg/mL),++ (≤8 μg/mL),++ (≤8 μg/mL),− (>32 μg/mL)
CC(C)NC(=O)/C(=C/CCNC(=N)N)NC(=O)[C@H](CCCCN)NC(=O)[C@H](Cc1cnc[nH]1)NC(=O)[C@@H]1CCCN1C(=O)[C@@H](CCCN)NC(=O)CNC(=O)[C@H](C)NC(=O)[C@@H](NC(=O)[C@@H](N)CCCCN)[C@@H](O)CN [24.162] (H-K[Dab(3S-OH)]AG[dOrn]PHK[ΔZArg]-NHiPr),− (>32 μg/mL),+ (≤32 μg/mL),++ (≤8 μg/mL),− (>32 μg/mL)
C[C@@H](O)[C@H](NC(=O)[C@@H](NC(=O)[C@@H](N)CCCCN)[C@@H](O)CN)C(=O)NCC(=O)N[C@H](CCCN)C(=O)N1CCC[C@H]1C(=O)N[C@@H](Cc1cnc[nH]1)C(=O)N[C@@H](CCCCN)C(=O)N/C(=C\CCNC(=N)N)C(=O)O [25.3] (H-K[Dab(3S-OH)]TG[dOrn]PHK[ΔZArg]-OH),− (>32 μg/mL),+ (≤32 μg/mL),+ (≤32 μg/mL),− (>32 μg/mL)
